In ChEMBL document CHEMBL1128864, “Antitumor activities of -, -monogalactosylceramides and four diastereomers of an -galactosylceramide” (1995):

Tests used:
Assay type in all cases: functional
Mus musculus [1] = experiment: Percent of tumor growth inhibition ratio (TGIR)of the compound administered intravenously at dose 5 mg/kg (on day 1) in subcutaneously infected BDF1 mice on day 20; conditions: route intravenous
Mus musculus [2] = experiment: Percent of tumor growth inhibition ratio (TGIR)of the compound administered intravenously at dose 5 mg/kg (on day1,5,9) in subcutaneously infected BDF1 mice on day 16; conditions: route intravenous
Mus musculus [3] = experiment: Percent of tumor growth inhibition ratio (TGIR)of the compound administered intravenously at dose 5 mg/kg (on day10, 14, 18 ) in subcutaneously infected BDF1 mice on day 20; conditions: route intravenous
Mus musculus [4] = experiment: Percent of tumor growth inhibition ratio (TGIR)of the compound administered intraperitoneally at dose 5 mg/kg (on day 1) in subcutaneously infected BDF1 mice on day 10; conditions: route subcutaneous
Mus musculus [5] = experiment: Percent of tumor growth inhibition ratio (TGIR)of the compound administered intravenously at dose 5 mg/kg (on day 1) in subcutaneously infected BDF1 mice on day 22; conditions: route intravenous
Mus musculus [6] = experiment: Percent of tumor growth inhibition ratio (TGIR)of the compound administered intraperitoneally at dose 5 mg/kg (on day 7, 11,15) in subcutaneously infected BDF1 mice on day 9; conditions: route subcutaneous
Mus musculus [7] = experiment: Percent of tumor growth inhibition ratio (TGIR)of the compound administered intravenously at dose 5 mg/kg (on day 1) in subcutaneously infected BDF1 mice on day 14; conditions: route intravenous
Mus musculus [8] = experiment: Percent of tumor growth inhibition ratio (TGIR)of the compound administered intraperitoneally at dose 100 ug/kg(on day 1) in subcutaneously infected BDF1 mice on day 12
Mus musculus [9] = experiment: Percent of tumor growth inhibition ratio (TGIR)of the compound administered intravenously at dose 5 mg/kg (on day 1,5,9) in subcutaneously infected BDF1 mice on day 20; conditions: route intravenous
Mus musculus [10] = experiment: Percent of tumor growth inhibition ratio (TGIR)of the compound administered intravenously at dose 5 mg/kg (on day 1) in subcutaneously infected BDF1 mice on day 18; conditions: route intravenous
Mus musculus [11] = experiment: Percent of tumor growth inhibition ratio (TGIR)of the compound administered intraperitoneally at dose 100 ug/kg(on day 1) in subcutaneously infected BDF1 mice on day 20
Mus musculus [12] = experiment: Percent of tumor growth inhibition ratio (TGIR)of the compound administered intravenously at dose 5 mg/kg (on day 1,5,9) in subcutaneously infected BDF1 mice on day 8; conditions: route intravenous
Mus musculus [13] = experiment: Percent of tumor growth inhibition ratio (TGIR)of the compound administered intravenously at dose 5 mg/kg (on day 10, 14, 18 ) in subcutaneously infected BDF1 mice on day 12; conditions: route intravenous
Mus musculus [14] = experiment: Percent of tumor growth inhibition ratio (TGIR)of the compound administered intraperitoneally at dose 5 mg/kg (on day 7, 11,15) in subcutaneously infected BDF1 mice on day 16; conditions: route subcutaneous
Mus musculus [15] = experiment: Percent of tumor growth inhibition ratio (TGIR)of the compound administered intravenously at dose 5 mg/kg (on day 1) in subcutaneously infected BDF1 mice on day 11; conditions: route intravenous
Mus musculus [16] = experiment: Percent of tumor growth inhibition ratio (TGIR)of the compound administered intraperitoneally at dose 100 ug/kg(on day 1) in subcutaneously infected BDF1 mice on day 13
Mus musculus [17] = experiment: Percent of tumor growth inhibition ratio (TGIR)of the compound administered intravenously at dose 100 ug/kg(on day 7, 11,15) in subcutaneously infected BDF1 mice on day 16
Mus musculus [18] = experiment: Percent of tumor growth inhibition ratio (TGIR)of the compound administered intravenously at dose 5 mg/kg (on day 1,5,9) in subcutaneously infected BDF1 mice on day 12; conditions: route intravenous
Mus musculus [19] = experiment: Percent of tumor growth inhibition ratio (TGIR)of the compound administered intravenously at dose 5 mg/kg (on day 10, 14, 18 ) in subcutaneously infected BDF1 mice on day 16; conditions: route intravenous
Mus musculus [20] = experiment: Percent of tumor growth inhibition ratio (TGIR)of the compound administered intravenously at dose 100 ug/kg on day 1, 5, 9 in subcutaneously (murine fibrosarcoma Meth A cells) infected in BDF1 mice on day 10
Mus musculus [21] = experiment: Percent of tumor growth inhibition ratio (TGIR)of the compound administered intravenously at dose 100 ug/kg(on day 1, 5, 9) in subcutaneously infected BDF1 mice on day 16
Mus musculus [22] = experiment: Percent of tumor growth inhibition ratio (TGIR)of the compound administered intravenously at dose 100 ug/kg(on day 1, 5, 9) in subcutaneously infected BDF1 mice on day 9
Mus musculus [23] = experiment: Percent of tumor growth inhibition ratio (TGIR)of the compound administered intravenously at dose 100 ug/kg on day 1, 5, 9 in subcutaneously (murine fibrosarcoma Meth A cells) infected in BDF1 mice on day 13
Mus musculus [24] = experiment: Percent of tumor growth inhibition ratio (TGIR)of the compound administered intravenously at dose 100 ug/kg(on day 1, 5, 9) in subcutaneously infected BDF1 mice on day 12
Mus musculus [25] = experiment: Percent of tumor growth inhibition ratio (TGIR)of the compound administered intravenously at dose 100 ug/kg(on day 1, 5, 9) in subcutaneously infected BDF1 mice on day 20
Mus musculus [26] = experiment: Percent of tumor growth inhibition ratio (TGIR)of the compound administered intravenously at dose 100 ug/kg on day 1, 5, 9 in subcutaneously (murine fibrosarcoma Meth A cells) infected in BDF1 mice on day 20
Mus musculus [27] = experiment: Percent of tumor growth inhibition ratio (TGIR)of the compound administered intravenously at dose 100 ug/kg on day 1, 5, 9 in subcutaneously (murine fibrosarcoma Meth A cells) infected in BDF1 mice on day 16

Compound	TGIR (Mus musculus [20]) [%]	TGIR (Mus musculus [21]) [%]	TGIR (Mus musculus [22]) [%]	TGIR (Mus musculus [23]) [%]	TGIR (Mus musculus [24]) [%]	TGIR (Mus musculus [25]) [%]	TGIR (Mus musculus [26]) [%]	TGIR (Mus musculus [27]) [%]	further results
CO[C@@]12[C@H](COC(N)=O)C3=C(C(=O)C(C)=C(N)C3=O)N1C[C@@H]1N[C@@H]12 [MITOMYCIN]	–	–	–	–	–	–	–	–	TGIR (Mus musculus [1]): 75.1%; TGIR (Mus musculus [2]): 86%; TGIR (Mus musculus [3]): 68.1%; TGIR (Mus musculus [4]): 80.1%; TGIR (Mus musculus [5]): 60%; TGIR (Mus musculus [6]): 35.2%; TGIR (Mus musculus [7]): 29.7%; TGIR (Mus musculus [8]): 53.9%; TGIR (Mus musculus [9]): 83.2%; TGIR (Mus musculus [10]): 51.2%; TGIR (Mus musculus [11]): 48.6%; TGIR (Mus musculus [12]): 90%; TGIR (Mus musculus [13]): 38.8%; TGIR (Mus musculus [14]): 59.7%; TGIR (Mus musculus [15]): 8.6%; TGIR (Mus musculus [16]): 85.1%; TGIR (Mus musculus [17]): 80%; TGIR (Mus musculus [18]): 89.7%; TGIR (Mus musculus [19]): 52.8%
CCCCCCCCCCCCCCC[C@@H](O)[C@H](CO[C@H]1O[C@@H](CO)[C@H](O)[C@H](O)[C@@H]1O)NC(=O)CCCCCCCCCCCCC (stereo in doubt; form 2)	45.2	1.4	-28	45	2.7	-7.6	7	29.2	–
CCCCCCCCCCCCCCC[C@@H](O)[C@H](CO[C@H]1O[C@@H](CO)[C@H](O)[C@H](O)[C@@H]1O)NC(=O)CCCCCCCCCCCCC (stereo in doubt; form 4)	69	64.8	59.5	68.1	62	54	36.7	58.1	–
CCCCCCCCCCCCCCC[C@@H](O)[C@H](CO[C@H]1O[C@@H](CO)[C@H](O)[C@H](O)[C@@H]1O)NC(=O)CCCCCCCCCCCCC (stereo in doubt; form 3)	45.6	26.8	35.3	41.5	45.2	4.2	21.3	28.9	–
CCCCCCCCCCCCCCC[C@@H](O)[C@H](CO[C@H]1O[C@@H](CO)[C@H](O)[C@H](O)[C@@H]1O)NC(=O)CCCCCCCCCCCCC (stereo in doubt; form 1)	26.9	35	29	33.1	38	28.3	3.9	22.1	–
